Assay results from US20220397564A1, “ENGINEERING SPATIAL-ORGANIZED CARDIAC ORGANOIDS FOR DEVELOPMENTAL TOXICITY TESTING” (priority 2021, published 2022).
Read-outs that look alike come from different tables or passages of the source.

Experiments:
[1] = tested on: hiPSC-based cardiac organoids; details: for concentration at which cardiac organoids/tissue failed to differentiate (cardiac differentiation abolished) / organoid formation / concentration with no contractile functions (stopped beating): human; for organoid formation: 100 μM
zebrafish embryos = details: for proportion of embryos with normal (D-looped) heart looping: across / at higher concentrations; for embryos expressing the GFP transgene: Tg(my17:GFP)
[2] = tested on: cardiac organoids (cTnT positive cells); assay: flow cytometry of cardiac differentiation efficiency (cTnT) of drug-treated organoids; type: cell-based, human; details: with increasing treatment concentration
Protocol: Cardiac organoids were dissociated using 0.25% Trypsin for 10-15 minutes. Cells were collected, centrifuged and washed with PBS. Cells were fixed and permeabilized with a mixture of 4% (vol/vol) paraformaldehyde and 0.2% (vol/vol) TritonX solution for 15 minutes. Cells were incubated with primary antibody cardiac troponin T (Thermofisher cat. no. MA5-12960) in a 1:250 dilution for 1 hour in PBS, and then incubated with AlexaFluor 546 secondary fluorophore for an additional hour. The cell suspension was washed, centrifuged and filtered through 35 μm mesh cell strainer. Flow cytometry was performed on the BDAccuriC6 at Flow Cytometry Core at Syracuse University.
Concentrations were chosen after evaluation of blood plasma concentrations reported for each drug from the FDA drug information database (accessdata.FDA.gov). Concentrations were chosen to be at or approximated by blood plasma concentrations, while accounting for drug solubility in water or DMSO, while also supplying a large range in order to detect potential toxicity. Drugs were diluted in the appropriate culture media at three concentrations each increasing by a factor of 10 with respective controls. […] Samples were terminated on Day 20 for motion tracking analysis and for fluorescence/confocal imaging to assess the developmental toxicity of specific drugs based on the organoid morphology and contractile physiology.

[3] = tested on: hiPSC-based cardiac organoids; assay: cardiac developmental toxicity assay on hiPSC-derived cardiac organoids (differentiation, contractile behavior, 3D morphology)

SMILES	FWHM [1]	beat rate [1]	height [1]	concentration at which cardiac organoids/tissue failed to differentiate (cardiac differentiation abolished) [1] [µM]	developmental toxicity (cardiac looping) (zebrafish embryos; zebrafish, in vivo)	developmental toxicity on zebrafish embryonic heart development (cardiac looping) (zebrafish embryos; zebrafish, in vivo)	organoid formation / 3D organoid morphology [1]	other results
CC1(C)S[C@@H]2[C@H](NC(=O)[C@H](N)c3ccc(O)cc3)C(=O)N2[C@H]1C(=O)O [Amoxicillin]	smaller	decreased	smaller					beat duration [1]: increased
C[C@H]1c2cccc(O)c2C(=O)C2=C(O)[C@]3(O)C(=O)C(C(N)=O)=C(O)[C@@H](N(C)C)[C@@H]3[C@@H](O)[C@@H]21 [Doxycycline]	Significant toxicity	Significant toxicity	Significant toxicity	100	severe developmental toxic effects	moderate toxicity		beat duration [1]: Significant toxicity; contraction velocity [1]: Significant toxicity; organoid formation [1]: failed to create 3D organoids
CN(C)CCOC(C)(c1ccccc1)c1ccccn1 (stereo not shown) [Doxylamine Succinate]		slower					no drug effects	effect on contractile functions (overall) [1]: prominent effects; percentage of cells expressing cTnT [2]: did not affect; proportion of embryos with normal (D-looped) heart looping (zebrafish embryos; 48 hpf): considerable proportion
CC1=C(/C=C/C(C)=C/C=C/C(C)=C\C(=O)O)C(C)(C)CCC1 [Isotretinoin, 13-cis-retinoic acid]				1	severe developmental toxic effects	severe defects	large organoids	embryos expressing the GFP transgene (zebrafish embryos; zebrafish, in vivo, 48 hpf): 0%
O=C([O-])[O-].[Li+].[Li+] [Lithium Carbonate]								organoid formation / 3D organoid morphology ([3]; all tested concentrations or not specified, vs controls): mild toxicity; effect on cardiac differentiation ([3]; concentration not specified): slight reduction; effect on contractile functions (overall) ([3]; concentration not specified, listed as lithium): did not affect; effect on contractile functions (overall) ([3]; concentration not specified, listed as lithium carbonate): no significant toxicity effects; FWHM ([3]; high / higher concentrations (thalidomide in b100: 100 μM)): moderate toxicity; developmental toxicity (cardiac looping) (zebrafish embryos; 48 hpf, all concentrations): severe developmental toxic effects; developmental toxicity on zebrafish embryonic heart development (cardiac looping) (zebrafish embryos; 48 hpf, concentration not specified): moderate toxicity
O=C1NC(=O)C(c2ccccc2)(c2ccccc2)N1 [Phenytoin]	smaller		smaller		mild embryotoxic effects	mild developmental toxic effect	smaller cardiac organoids than controls, but still maintained structural integrity	concentration with no contractile functions (stopped beating) [1]: 100 µM
CO[C@H]1/C=C/O[C@@]2(C)Oc3c(C)c(O)c4c(O)c(c(/C=N/N5CCN(C)CC5)c(O)c4c3C2=O)NC(=O)/C(C)=C\C=C\[C@H](C)[C@H](O)[C@@H](C)[C@@H](O)[C@@H](C)[C@H](OC(C)=O)[C@@H]1C [Rifampicin]	toxicity	toxicity	toxicity	100	mild embryotoxic effects	mild developmental toxic effect		contraction velocity [1]: toxicity; organoid formation [1]: severe developmental toxicity at a high concentration (100 μM) with no organoid formation
O=C1CCC(N2C(=O)c3ccccc3C2=O)C(=O)N1 (stereo not shown) [Thalidomide]		high variability			very mild toxicity level	not as significant as what was observed in the organoid model	abnormal cardiac organoids	area ratio [1]: decrease; area ratio of cardiac muscle coverage [1]: less cardiac tissue coverage; percentage of cells expressing cTnT [2]: considerable reduction; proportion of embryos with normal (D-looped) heart looping (zebrafish embryos; 48 hpf): did not notably decrease
CC1=C(/C=C/C(C)=C/C=C/C(C)=C/C(=O)O)C(C)(C)CCC1 [Tretinoin, all-trans-retinoic acid]				10	severe developmental toxic effects	severe defects		effect on cardiac differentiation [1]: abolished all cardiac differentiation; concentration with no contractile functions (stopped beating) [1]: 10 µM; embryos expressing the GFP transgene (zebrafish embryos; zebrafish, in vivo, 48 hpf): 0%
